Common to all, as to type: cell-based
Experiment [1] deals with MMP-9. In words: RT-qPCR gene expression of MMP-9. As to conditions: for MMP9 Fold Change: Caco2, relative to cont.Caco2 = 1. How it is done:
(§1) The treated cells were harvested and the total RNA was extracted using RNeasy Mini Kit (Qiagen) according to the manufacturer’s instruction. The primers of the required genes (Table 6) were used for SYBR Green qRT-PCR using a one-step RT-PCR kit with SYBR Green (Bio-Rad). qRT-PCR was performed on Rotor Gene Q (Qiagen). […] Rotor-Gene 6000 Series Software was used for data analysis. and their HGNC ID was added (Table 6)
(§2) Researcher : Dr/Noura email: mob.
(§3) Reader : Rotorgene RT- PCR system
(§4) Kit used : Qiagen RNA extraction/BioRad syber green PCR MMX
(§5) Assay samples :Cell culture Lysate
(§6) Cpd. No. Cpd. No. Cpd. No. Cpd. No.
(In qPCR the cycle at which signal appears reflects the starting amount.)

The subject of experiment [2] is MMP-2. As to the kind of experiment: RT-qPCR gene expression of MMP-2. As to conditions: for MMP2 Fold Change: Caco2, relative to cont.Caco2 = 1. How it is done: as §1, §2, §3, §4, §5, §6
Experiment [3] concerns Caco-2 cells. As to the kind of experiment: Cell-cycle analysis by flow cytometry. As to conditions: for %G0–G1 / %G2/M / %S / %Pre-G1: Caco-2 cells; for %G0–G1 / %G2/M / %S: cell-cycle distribution after treatment; for %Pre-G1: Pre-G1 = apoptotic population; for apoptotic population compared to the parent compound: Caco-2, in words, versus parent 1 or 2. How it is done:
The potential candidates with anti-tumor effect on the Caco-2 cell line along with a high SI were chosen for cell-cycle analysis. The cell-cycle distribution and cell death were analyzed using Annexin V-FITC/PI staining and flow cytometry (Table 4, Figure 4).
In order to determine the percentage of viable, apoptotic and necrotic cells after treatment with our compounds, double-staining with fluorescein isothiocyanate (FITC) and PI was performed. Annexin V-FITC Apoptosis Detection Kit (BioVision, CA, USA) was used. Briefly, cultured Caco-2 were treated with the tested compounds or DMSO for 24h. Cells were then collected by centrifugation at 2000 rpm for 5 min, and the pellet was washed with PBS then centrifuged again at 2000 rpm for 5 min then resuspended in 500μL of the kit’s binding buffer before adding the Annexin V-FITC and PI. The cells were then incubated at room temperature in the dark for 5 min. […]
Assay : Cell Cycle Analysis
Kit used : ab139418_Propidium Iodide Flow Cytometry Kit/BD
Assay samples :Cell culture
as §6

The test system of experiment [4] is Caco-2 cells. As to the kind of experiment: Annexin V-FITC/PI apoptosis assay by flow cytometry. Set-up: key: % of cells. As to conditions: annexin-V FITC/PI staining, 24h. How it is done:
In order to determine the percentage of viable, apoptotic and necrotic cells after treatment with our compounds, double-staining with fluorescein isothiocyanate (FITC) and PI was performed. Annexin V-FITC Apoptosis Detection Kit (BioVision, CA, USA) was used. Briefly, cultured Caco-2 were treated with the tested compounds or DMSO for 24h. Cells were then collected by centrifugation at 2000 rpm for 5 min, and the pellet was washed with PBS then centrifuged again at 2000 rpm for 5 min then resuspended in 500μL of the kit’s binding buffer before adding the Annexin V-FITC and PI. The cells were then incubated at room temperature in the dark for 5 min. Annexin V-FITC binding was measured using FACS Calibur flow cytometer (BD biosciences, USA) (Ex = 488 nm, Em = 533 nm, FL1 filter for annexin and FL2 filter for PI).
On the technique in general: Flow cytometry measures light scatter and fluorescence of single cells or particles in a stream.

Experiment [5] has as its system Caco-2 cancer cell line. As to the kind of experiment: MTT cell viability assay, Caco-2. As to conditions: MTT, 48 h, average of triplicates, semi-synthesized compounds (Table 3), read-out: IC50 (μM) on Caco-2 cancer cell line. How it is done:
MCF-7 cells (Human breast adenocarcinoma), HepG2 (human hepatocellular carcinoma), A549 (human lung adenocarcinoma), Caco-2 (colon carcinoma), PANC-1 (human pancreatic cancer), and Vero cells (derived from normal kidney cells) were supplied by (Holding Company for Biological Products and Vaccines VACSERA; Giza, Egypt). The cells were cultured in PRMI 1640 medium (Lonza, Switzerland) supplemented with 10% fetal bovine serum (Gibco), 1% penicillin and 1% streptomycin (Sigma Aldrich, Saint Louis, MO, USA) at 37 °C under an atmosphere of 5% CO2 and 95% air.
The effect of parent compounds and their derivatives were assessed by (3-(4,5-dimethylthiazol-2-yl)-2,5diphenyl-tetrazolium bromide) MTT assay. […] After a merged sheet of cells developed, the growth media was decanted from the 96-well microtiter and refilled with different concentrations of compounds (µg/mL), and the plate was incubated at 37 °C for 48 h to minimize exposure to the dissolving agent (Supporting Information).
MTT solution (BIO BASIC CANADA INC) was prepared [5 mg/mL in phosphate buffered saline (PBS)], added to each well and incubated for 4 h, then after removing the media, 200 μL of DMSO was added to each well to solubilize the formazan crystals and the optical density of the formazan product was measured at 560 nm using microplate reader (mindray, MR-96A). The results were calculated as the mean of the three independent experiments. […]
Determination of sample cytotoxicity on cells (MTT protocol) […]
well) and incubated at 37°C for 24 hours to develop a complete monolayer sheet.
2- Growth medium was decanted from 96 well micro titer plates after confluent sheet of cells were formed, cell monolayer was washed twice with wash media.
3- two-fold dilutions of tested sample was made in RPMI medium with 2% serum […]
4- 0.1 ml of each dilution was tested in different wells leaving 3 wells as control, receiving only maintenance medium.
5- Plate was incubated at 37°C and examined. Cells were checked for any physical signs of toxicity, e.g. partial or complete loss of the monolayer, rounding, shrinkage, […]
6- MTT solution was prepared (5mg/ml in PBS) (BIO BASIC CANADA INC).
8- 20ul MTT solution were added to each well. Place on a shaking table, 150rpm for 5 minutes, to thoroughly mix the MTT into the media.
10) Dump off the media. (dry plate on paper towels to remove residue if necessary. […] 9 ش - ايلعلا هبضهلا - مطقملا / ىسيئرلا لمعملا […]

Experiment [6] has as its system p53. In words: RT-qPCR gene expression of p53. How it is done: (§7) Gene expression was chosen over Western blotting for more accurate quantification and thus comparison. The gene expression of the p53, caspase 3 and Bax genes was measured.
(§8) The treated cells were harvested and the total RNA was extracted using RNeasy Mini Kit (Qiagen) according to the manufacturer’s instruction. The primers of the required genes (Table 6) were used for SYBR Green qRT-PCR using a one-step RT-PCR kit with SYBR Green (Bio-Rad). qRT-PCR was performed on Rotor Gene Q (Qiagen). […] Rotor-Gene 6000 Series Software was used for data analysis. and their HGNC ID was added (Table 6) […]
(§9) Researcher : DR Moh.Abdelbasir email: m_a_baser@yahoo.com mob.01 […]
as §3, §4, §5, §6
(§10) Run On Software Version Rotor-Gene 1.7.87
(§11) This report generated by Rotor-Gene 6000 Series Software 1.7 (Build 87) Copyright 2000-2006 Corbett Research, a Division of Corbett Life Science. All rights reserved. […]

Experiment [7] has as its system Bax. In words: RT-qPCR gene expression of Bax. How it is done:
as §7, §8, §9, §3, §4, §5, §6, §10, §11

Experiment [8] has as its system Caspase 3. In words: RT-qPCR gene expression of caspase 3. How it is done:
as §7, §8, §9, §3, §4, §5, §6, §10, §11

For experiment [9], the system named is Bcl-2. In words: RT-qPCR gene expression of Bcl-2. As to conditions: Caco2, β-actin as control gene, relative to cont.Caco2 = 1; listed as FA9. How it is done: as §8, §9, §3, §4, §5, §6, §10, §11
Where [10] appears, read: Caco2, β-actin as control gene, relative to cont.Caco2 = 1, listed as FA9.

Values joined by “and” are separate entries in the source; they are usually repeats but may differ in a detail not shown here. Identical values can stand only once. Like-named read-outs stand apart in the source and are kept apart here.

From publication PMC9571594, “Development of Semisynthetic Apoptosis-Inducing Agents Based on Natural Phenolic Acids Scaffold: Design, Synthesis and In-Vitro Biological Evaluation” (Molecules, 2022) come the findings set out here.

As usually defined, the IC50 is the concentration that gives 50% inhibition. In the case of `Nc1ccccc1NC(=O)/C=C/c1ccc(O)c(O)c1` [Compound 11, (E)-N-(2-Aminophenyl)-3-(3,4-dihydroxyphenyl)acrylamide], the “MMP9 Fold Change” value in experiment [1] is on record as 0.30±0.006 Fold Change. In addition, in [2], the “MMP2 Fold Change” value amounted to 0.54±0.014 Fold Change. In [3], the “%G0–G1” value is 41.09 ± 2.76%; the “%G2/M” value is 25.55 ± 2.47%; the “%S” value was found to be 33.36 ± 2.73%; the “%Pre-G1” value is 14.04% and 14.04 ± 0.95%. In [3] (listed as CA12), the “%G0–G1” value stood at 41.09%, the “%G2/M” value is reported as 25.55% and the “%S” value is on record as 33.36%. Besides, in experiment [4], the “Apoptosis Total” value is reported as 14.04, the “Early Apoptosis” value is listed as 2.47 and the Necrosis came to 2.07. Moreover, the “Late Apoptosis” value in experiment [4] (listed as CA12) turned out to be 9.5. Moreover, in experiment [5] (Homo sapiens, Caco-2), the IC50 turned out to be 10 µM.
As to `COc1cc(/C=C/C(=O)NC2CCCCC2)ccc1O` [Compound 15, (E)-N-Cyclohexyl-3-(4-hydroxy-3-methoxyphenyl)acrylamide], in [1], the “MMP9 Fold Change” value turned out to be 0.37±0.007 Fold Change. For the same compound, the “MMP2 Fold Change” value in experiment [2] was 0.59±0.016 Fold Change. In addition, in [3], the “%G0–G1” value was 26.59 ± 2.67%; the “%G2/M” value was 50.83 ± 3.49%; the “%S” value amounted to 22.58 ± 2.91%; the “%Pre-G1” value is 25.17% and 25.17 ± 3.29%. For the same compound, in experiment [3] (listed as FA5), the “%G0–G1” value came out at 26.59%, the “%G2/M” value stood at 50.83% and the “%S” value came out at 22.58%. Further, in experiment [4], the “Apoptosis Total” value turned out to be 25.17, the “Early Apoptosis” value came to 5.79 and the Necrosis is listed as 2.81. For the same compound, the “overexpression of p53 gene” value in experiment [6] (Figures 6 and 7) stood at 10 fold. For the same compound, the “overexpression of Bax gene” value in [7] (Figures 6 and 7) stood at 15 fold. For the same compound, the “overexpression of caspase 3 gene” value in experiment [8] (Figures 6 and 7) was 15 fold. Also, the IC50 in [5] (Homo sapiens, Caco-2) was 20 µM.
On to `COc1ccc(/C=C/C(=O)NCc2ccccc2)cc1O` [Compound 18, (E)-N-Benzyl-3-(3-hydroxy-4-methoxyphenyl) acrylamide], for which the “MMP9 Fold Change” value in experiment [1] was 0.52±0.010 Fold Change. In experiment [2], the “MMP2 Fold Change” value is reported as 0.42±0.011 Fold Change. In [3], the “apoptotic population compared to the parent compound” value was “non-significant decrease”, the “%G0–G1” value came out at 33.26 ± 4.29%, the “%G2/M” value is on record as 37.62 ± 2.47% and the “%S” value is reported as 29.12 ± 4.05%. Moreover, in [3], the “%Pre-G1” value came out at 12.92 ± 2.16%. For the same compound, in experiment [3] (listed as FA9), the “%G0–G1” value is recorded as 33.26%, the “%G2/M” value is recorded as 37.62%, the “%S” value is 29.12% and the “%Pre-G1” value amounted to 12.92%. Further, in experiment [4], the “Apoptosis Total” value worked out at 12.92, the “Early Apoptosis” value was 3.88, the “Late Apoptosis” value is on record as 7.31 and the Necrosis worked out at 1.73. Besides, the “P53 gene expression Fold Change” value in [6] (setting [10]) was 5.87±0.27 Fold Change and 5.878 Fold Change. In [7] (setting [10]), the “Bax gene expression Fold Change” value is 6.06±0.41 Fold Change and 6.068 Fold Change. In addition, the “Casp3 gene expression Fold Change” value in experiment [8] (setting [10]) was 6.02±0.33 Fold Change and 6.029 Fold Change. Further, the IC50 in [5] is 50 µM. In experiment [9], the “Bcl2 gene expression Fold Change” value was 0.58±0.03 Fold Change and 0.5856 Fold Change.
For the compound “(E)-3-(3-Hydroxy-4-methoxyphenyl)-N-(m-tolyl)acrylamide [Compound 17]”, the “expression of MMP9 (in words)” value in [1] (Figures 8 and 9) is given as “greatest inhibition”. Also, in [2] (Figures 8 and 9), the “expression of MMP2 (in words)” value is “greatest inhibition”. Further, in experiment [3], the “apoptotic population compared to the parent compound” value is given as “non-significant decrease” and the “%Pre-G1” value was 12.11 ± 0.97%. Also, in experiment [3] (listed as FA8), the “%Pre-G1” value was determined as 12.11%. Further, in experiment [4], the “Apoptosis Total” value is listed as 12.11, the “Early Apoptosis” value came to 4.25, the “Late Apoptosis” value is listed as 6.25 and the Necrosis is recorded as 1.61. Moreover, in experiment [5], the IC50 came to 20 µM.
